Measured values taken from paper PMC5938390, “Tachyplesin Causes Membrane Instability That Kills Multidrug-Resistant Bacteria by Inhibiting the 3-Ketoacyl Carrier Protein Reductase FabG” (Frontiers in Microbiology, 2018).
Positions of bridges follow the written chain, without caps; N, C: chain ends. Residues, ends and D or L forms follow the SMILES beside them.

Columns and labels:
A. baumannii 1408 [1] = experiment: Transcriptome analysis (RNA sequencing, FPKM, DESeq); type: cell-based, Acinetobacter baumannii; conditions: Ab; Ta 16 μg/ml, 30 min, 37°C
Method: (§1) The Vitek 32 system (bioMerieux, France) and 16S rDNA sequencing were used to verify the clinical isolates A. baumannii 1408, P. aeruginosa 1409, Klebsiella pneumoniae 5 and E. coli 513, which were grown overnight in Luria-Bertani (LB) medium at 37°C with constant shaking at 220 rpm to reach the middle of their logarithmic growth phase. […] After the addition of 2 volumes of RNAprotect Bacteria Reagent (QIAGEN) to stabilized RNA, samples were vortexed for 5 s, incubated for 5 min at room temperature (15–25°C) and collected by centrifugation at 4°C for 5 min at 4000 g.
(§2) RNA isolation and sequencing were performed by Novogene Bioinformatics Technology Co., Ltd. (Beijing, China) as previously described ([Liu B. et al., 2014]). Clean reads were mapped to the corresponding bacterial genomes using Bowtie 2 software ([Langmead and Salzberg, 2012]). Gene expression was calculated using the FPKM (expected number of fragments per kilobase of transcript sequence per millions of base pairs sequenced) method with HTSeq software (union model) ([Anders et al., 2015]). Differentially expressed genes were selected based on the DESeq R package with Padj values < 0.05 ([Anders and Huber, 2010]). KEGG pathway analysis was performed using KOBAS (2.0), and the corrected p value cut-off was set at 0.05 ([Li et al., 2015]).

E. coli 513 = experiment: MIC against clinical isolate; type: cell-based, Escherichia coli
K. pneumoniae 5 [2] = experiment: MIC against clinical isolate; type: cell-based, Klebsiella pneumoniae
[3] = tested on: L929 (mouse fibroblast cell line); conditions: concentration increased from 50 mg/L to 100 mg/L, XTT
Method: (§3) These studies were carried out as we previously reported with slight modifications and briefly introduced as follows ([Liu et al., 2017]). […] Cytotoxicity in different cell lines was assessed using the Cell Proliferation Kit II (XTT) (Roche), and cytotoxicity in hemocytes was evaluated by the increase in the absorbance at 540 nm after peptide incubation. Membrane rupture was indicated by the entrance of the DNA-binding fluorescent dye PI into MDR clinical isolates of P. aeruginosa strain 1409. Membrane translocation of N-terminal FITC-conjugated tachyplesin III (purity ≥ 95%, synthesized by GL Biochem Co., Ltd, Shanghai, China) into MDR clinical isolates of Acinetobacter baumannii strain 1408 were detected by confocal laser-scanning microscopy.
Cytotoxicity of tachyplesin III was tested by hemolysis and cell viability assays. (A) Tachyplesin III dissolved in 0.9% saline was added to mouse erythrocytes that were diluted with the same buffer. After 30 min of incubation at 37°C and then centrifugation at 1000 g for 15 min, supernatants were diluted 1:4 with 0.9% saline, and absorbance at 540 nm was tested. With 1% Triton X-100 (v/v) to determine 100% hemolysis and 0.9% saline as the negative control, the hemolysis rate was calculated as [(Absorbancesample^-Absorbancecontrol)/(Absorbance100%^-Absorbancecontrol)] × 100. Cytotoxicity was assessed using the Cell Proliferation Kit II (XTT) (Roche) for (B) L929 (mouse fibroblast cell line), (C) 293FT (human embryonic kidney cell line) and (D) A549 (adenocarcinomic human alveolar basal epithelial cell line) cells. Absorbance [A492-A690 nm] was used to quantify viable cells.

A. baumannii 1408 [4] = experiment: MIC against MDR clinical isolate; type: cell-based, Acinetobacter baumannii
K. pneumoniae 5 [5] = experiment: Transcriptome analysis (RNA sequencing, FPKM, DESeq); type: cell-based, Klebsiella pneumoniae; conditions: Kp; Ta 16 μg/ml, 30 min, 37°C
Method: as §1, §2

P. aeruginosa 1409 = type: cell-based, Pseudomonas aeruginosa; conditions: Pa; Ta 16 μg/ml, 30 min, 37°C
Method: as §1, §2

[6] = tested on: Escherichia coli strain DH5α; experiment: Stability in sterile deionized water, read out as MIC against DH5α; type: physicochemical; conditions: 37°C, 2 mg/ml, stability judged by MIC against DH5α
Method: as §3
Tachyplesin III (2 mg/ml) was incubated in either sterile deionized water or mouse serum at 37°C for various lengths of time, aliquots were taken, and MICs against DH5α cells were tested. Stability of the MIC indicates the stability of tachyplesin III.

FabG from S. aureus = molecular target: T1, FabG from S. aureus (Staphylococcus aureus, UniProt P0A0H9); experiment: FabG enzyme activity inhibition assay (NADPH consumption, A340); type: biochemical; conditions: higher concentrations (7.5 and 15 μM) of peptide, 6 μM FabG, 5 min, room temperature
T1 construct: His tag (C); made in house; host or cells: E. coli BL21 DE3 (vector pET28a)
T1 sequence (P0A0H9 1-246): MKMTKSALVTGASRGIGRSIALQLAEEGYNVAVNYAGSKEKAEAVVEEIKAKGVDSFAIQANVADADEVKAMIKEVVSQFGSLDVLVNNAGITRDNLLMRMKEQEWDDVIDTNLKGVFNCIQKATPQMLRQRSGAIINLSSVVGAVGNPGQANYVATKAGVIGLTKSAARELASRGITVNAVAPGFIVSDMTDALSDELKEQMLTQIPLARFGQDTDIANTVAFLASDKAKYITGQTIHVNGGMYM
Method: A 96-well plate with a final total volume of 200 μl per reaction was used for the FabG inhibition assay. Briefly, tachyplesin III (15, 7.5, and 3.75 μM) was incubated with 1.5 μM FabG from E. coli or 6 μM FabG from S. aureus at room temperature for 5 min, before the addition of 300 μM nicotinamide adenine dinucleotide phosphate (NADPH, Sigma) and then 150 μM acetoacetyl-CoA (Sigma) to initiate the reaction. The decrease in absorbance at 340 nm was recorded over 5 min to reflect the consumption of NADPH.
FIGURE 7 Tachyplesin III binding with FabG inhibits its enzyme activities in vitro, probably by blocking the active site. Binding interactions between tachyplesin III and FabG from E. coli (A) or from S. aureus (E) were analyzed by surface plasmon resonance (SPR) with a Biocore 3000 (Biocore, Piscataway, NJ, United States). Black line: 1.25 μg/mL FabG; green line: 2.5 μg/mL FabG; purple line: 5 μg/mL FabG; and red line: 10 μg/mL FabG. […] Tachyplesin was processed with Chemdraw 11.0 according to the structure of tachyplesin I (PDB code 2RTV) and then docked to the active site of FabG from E. coli (PDB code 1Q7B) or S. aureus (PDB code 3SJ7) with AutoDock4 using the default settings. […] Statistical significance was analyzed by one-way ANOVA followed by the Newman–Keuls multiple-comparisons test, ^∗∗p < 0.01, ^∗p < 0.05.

## CC[C@H](C)[C@@H]1NC(=O)CNC(=O)[C@H](CCCNC(=N)N)NC(=O)[C@H](Cc2ccc(O)cc2)NC(=O)[C@@H]2CSSC[C@H](NC1=O)C(=O)N[C@@H](Cc1ccc(O)cc1)C(=O)N[C@@H](CCCNC(=N)N)C(=O)N[C@@H](CCCCN)C(=O)N[C@H](C(=O)N[C@@H](CCCNC(=N)N)C(N)=O)CSSC[C@H](NC(=O)[C@H](Cc1c[nH]c3ccccc13)NC(=O)[C@@H](N)CCCCN)C(=O)N[C@@H](Cc1ccccc1)C(=O)N[C@@H](CCCNC(=N)N)C(=O)N[C@@H](C(C)C)C(=O)N2 [tachyplesin III] (H-KWCFRVCYRGICYRKCR-NH2; disulfide 3-16, 7-12 (inferred); N-terminus and C-terminus assumed)
A. baumannii 1408 [1]
  Fold change after Ta treatment, gene A1S_2061 (3-ketoacyl-acyl carrier protein reductase): 2.89
E. coli 513
  16 μg/ml tachyplesin III expressed as multiple of MIC: 4 × MIC
K. pneumoniae 5 [2]
  16 μg/ml tachyplesin III expressed as multiple of MIC: 1/2
[3]
  cell viability: declined sharply
A. baumannii 1408 [4]
  16 μg/ml tachyplesin III expressed as multiple of MIC: 1 × MIC
K. pneumoniae 5 [5]
  Fold change after Ta treatment, gene KPNJ2_01584 (Enoyl-CoA hydratase): 2
  Fold change after Ta treatment, gene KPNJ2_03426 (3-ketoacyl-acyl carrier protein reductase): 1.83
P. aeruginosa 1409
  Fold change after Ta treatment, gene PADK2_09275 (3-hydroxyacyl-CoA dehydrogenase): 2.04
  Fold change after Ta treatment, gene PADK2_25405 (3-ketoacyl-acyl carrier protein reductase): 2.71
[6]
  time stable in sterile deionized water: ~48 h
FabG from S. aureus
  FabG activity: almost completely blocked
